What all share (experiment): NCI anticancer screen, dose series, 48 h
The subject of test [1] is KM12 colon.
Test [2] concerns CCRF-CEM leukemia.
Test [3] has as its system MALME-3M melanoma.
Test [4] concerns SK-MEL-5 melanoma.
The subject of test [5] is HCT-15 colon.
For test [6], the system named is CAKI-1 renal.
The test system of test [7] is U251 CNS.
Test [8] deals with PC-3 prostate.
Test [9] deals with SK-MEL-2 melanoma.
Test [10] deals with COLO 205 colon.

Structures are written as SMILES.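 Interpolation was linear, between the two tested concentrations surrounding the appropriate level; five concentrations were tested over 48 hours in 96-well plates. GI50: concentration for 50% inhibition of growth. At the TGI there is no net growth.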

Regarding `O=C(/C=C/c1ccc([N+](=O)[O-])cc1)N1CCN(CCOC(c2ccc(F)cc2)c2ccc(F)cc2)CC1`, the TGI in [1], in test [2], in [3], in test [4], in test [5] and in test [6] was more than 100 µM throughout. In addition, the TGI was more than 100 µM in test [7], more than 100 µM in test [8], more than 100 µM in test [9] and 27.3 µM in [10].

As to `O=C1Nc2cccc(Cl)c2/C1=C\c1cccnc1`, the TGI in test [1] was 25.9 µM; in [2] it was more than 100 µM; in test [3], 24 µM; in test [4] it was 27.4 µM; in [5], more than 100 µM; in [6] it was 24.2 µM. In addition, the TGI is 35.2 µM in test [7], more than 100 µM in [8], 25.9 µM in test [9] and 15.9 µM in [10].

`Cc1csc2nc(-c3cccc([N+](=O)[O-])c3)c(/C=N/N=C(N)N)n12`: the TGI was 4.86 µM in [1]; 2.74 µM in [4]; 3.71 µM in test [5]; 8.71 µM in test [6]; 3.4 µM in test [7]; 3.08 µM in test [8]. In addition, the TGI in test [9] was 3.42 µM; in test [10] it was 3 µM.

As for `COC(=O)c1c(O)ccc2c1c1c(n2CCc2ccc(OC)c(OC)c2)C(=O)c2ccccc2C1=O`, the TGI in [1] is 25.6 µM; in [2], 45.2 µM; in test [3], 29.2 µM; in test [4] it was 23.9 µM; in test [5], 29.3 µM; in [6], 38.3 µM. Besides, the TGI in test [7] amounted to 43.2 µM; in [8], 35.9 µM; in [9], 32.8 µM; in test [10], 11.1 µM.

Turning to `Brc1ccc(-c2[nH]c3ccccc3c2/C=N\Nc2ccc(-c3nc4ccccc4[nH]3)cc2)cc1`, the TGI in test [1] is more than 100 µM; in [2] it was more than 68.6 µM; in test [3], 24 µM; in test [4] it was 1.41 µM; in test [5], more than 37 µM; in test [6] it was more than 100 µM. Also, the TGI is more than 42.1 µM in test [7], more than 100 µM in [8], more than 35.4 µM in test [9] and 0.0834 µM in [10].

`O=C1OC(c2ccc(O)cc2)(c2ccc(O)cc2)c2ccc(Cl)c3cccc1c23` (tested in a mixture with another compound): the TGI in [1] came out at 17.9 µM; in test [2], 36.2 µM; in test [3], 29.1 µM; in test [4], 29.3 µM; in [5], 22.8 µM; in [6], 22 µM. The TGI is 25.2 µM in [7], 20.6 µM in test [8], 31.6 µM in test [9] and 9.06 µM in test [10].

Regarding `Cc1ncc(C(=O)Nc2ccc(CN3CCN(C)CC3)c(C(F)(F)F)c2)cc1C#Cc1cnc(N)c2ccc(C#N)cc12`, in [5], the GI50 is 0.0485 µM and the TGI amounted to 1.5 µM. Besides, in [10], the GI50 is 0.0146 µM and the TGI was more than 100 µM.

In the case of `COc1cc(/C=N/NC(=O)c2c(Cl)c(Cl)c(Cl)c(Cl)c2-c2nc3ccc(C(=O)c4ccccc4)cc3[nH]2)ccc1O`, the TGI is more than 100 µM in test [1]; 81.6 µM in test [2]; more than 100 µM in test [3]; more than 100 µM in test [4]; more than 100 µM in [5]; more than 100 µM in test [6]. Further, the TGI in test [7] was more than 100 µM; in test [8] it was more than 100 µM; in [9] it was more than 100 µM; in test [10] it was 58.1 µM.

Consider `O=C(O)c1cc2ccccc2c(N=Nc2ccc(S(=O)(=O)Nc3ccccn3)cc2)c1O`, for which the TGI in test [1], in [2], in test [3], in [4], in test [5] and in test [6] was more than 100 µM in each case. Besides, the TGI in [7], in test [8], in test [9] and in test [10] was more than 100 µM throughout.

With `O=S(=O)(c1ccccc1)C1CC(c2nc3ccccc3[nH]2)=NO1` (stereo not given), the TGI in [2] is 82.6 µM; in test [3], more than 100 µM; in test [4] it was more than 100 µM; in test [5], more than 100 µM; in test [6], more than 100 µM; in test [7], more than 100 µM. Besides, the TGI in test [8], in test [9] and in test [10] was more than 100 µM in each case.

With `CCCCCCCCCCCCc1ccc(S(=O)(=O)O)cc1.[Cu+2]`, the TGI in test [1], in test [2], in test [3], in test [4], in test [5] and in test [6] was more than 100 µM in each case. For the same molecule, the TGI in [7], in test [8] and in test [10] was more than 100 µM throughout.

The values above are taken from PubChem BioAssay (NCI).
